According to patent publication US20260263638A1, “COMPOSITIONS AND METHODS TO IMPROVE RNA PROPERTIES USING BASE, PHOSPHODIESTER LINKAGE, SUGAR BACKBONE, AND CAP MODIFICATIONS” (The Broad Institute, Inc., priority 2023, published 2026):
“Also recorded” adds a separate entry of the source. Strand notation (5' to 3'): a small letter for the sugar, then the base; units joined by * are phosphorothioate-linked, units joined directly phosphodiester-linked; [ ] holds rarer units or linkages, { } end groups; capitals alone tell only the bases. [5OctU] = 5-octadiynyl-2'-deoxyuridine, alkyne click handle; d = 2'-deoxy (DNA); {3P} = phosphate; r = 2'-OH (RNA); {P} = phosphate

Experiments:
[1] = system: rabbit reticulocyte lysate (RRL) in vitro translation system; assay: In vitro translation assay in rabbit reticulocyte lysate with or without 4EGI-1; type: biochemical
Procedure: Firefly luciferase reporter mRNA with one cap and Nanoluc mRNA with two caps were synthesized according to protocol mentioned above. The in vitro translation was conducted using Rabbit Reticulocyte Lysate (Nuclease-treated) [Promega, L4960] according to manufacturer's protocol with some modifications. 30% or 40% of rabbit reticulocyte lysate, 4% of SUPERaseIn RNase Inhibitor, amino acid mixture and indicated mRNA were added to the reaction with 4EGI-1 inhibitor (600 μM) or DMSO as control in 50 μL reaction. The reactions were incubated at 30° C. for an hour. Then, […] of the reaction mixture was diluted by 10-fold with PBS. The fluorescence of firefly luciferase was measured with Dual-Glo Luciferase Assay System [Promega, E2920] and the fluorescence of Nanoluc was measured with Nano-Glo Luciferase Assay System [Promega, N1110] according to manufacturer's protocol.

[2] = system: HeLa cells; assay: NLuc bioluminometry of circRNA/QRNA (Fluc transfection control); type: cell-based
Procedure: (§1) Synthetic linear mRNA encoding NanoLuciferase (NLuc) was prepared from DNA template by IVT with 100% m1ψ substitution. The triphosphorylated mRNA after IVT was then treated with Calf Intestinal Alkaline Phosphatase (CIAP) to yield 5′/3′-hydroxyl mRNA. A chemically synthesized oligonucleotide with a branched m7G cap and 5′/3′-phosphates was then ligated to the 5′/3′-hydroxyl mRNA by T4 RNA ligase, which ligates the 5′-phosphate on the oligo and 3′-hydroxyl of the mRNA. The ligation product was then further treated with RtcB ligase, which ligates the 5′-hydroxyl and 3′-phosphate ends to enable intramolecular circularization. […] Using one primer only produced no fragmentation but only linearization, confirming successful circularization. Using double primers produced fragments flanking the branched region, where branched topology was confirmed by gel shift. […] NLuc bioluminometry was measured 8 hrs post transfection and normalized Firefly luciferase as transfection control. Mean±s.e.m., n=3. P values were calculated by ordinary one-way ANOVA (alpha=0.05), with multiple comparisons to circ-NLuc with only 5-octadiynyl deoxyuridine (OU) handle (construct 45). ****P<0.0001, n.s. P>0.05. […] QRNA with m7G (construct 48) was compared. n=3, biological replicates. Mean±sem. P values were calculated by ordinary one-way ANOVA with multiple comparisons against construct 61 without any cotransfected capped oligos (Dunnett's multiple comparison test). […] P values were calculated by unpaired two-sided t-test.
HeLa cells [ATCC, CCL-2] were maintained in DMEM culture media [ThermoFisher Scientific, 119951] containing 10% FBS and 1% penicillin-streptomycin [ThermoFisher Scientific, 15070063] in a 37° C. incubator with 5% CO2 and passaged at a ratio of 1:10 every 3 days. […] Cells were lysed and luciferase activity was measured using the Promega Dual Glo Luciferase Assay System [Promega, E2920]. Firefly luminescence/Renilla luminescence for each well was used as mRNA activity readout. […]

[3] = In vivo imaging of NanoLuc after retro-orbital mRNA-LNP injection; settings: mice; for NLuc translation of QRNA relative to uncapped m1ψ-circRNA precursor (circRNA-OU): LNP retro-orbital
Procedure: All animal procedures followed animal care guidelines approved by the Institutional Animal Care and Use Committee (IACUC) of the Broad Institute of MIT and Harvard under animal protocol #0255-08-19. Animal experiments were conducted in compliance with IACUC policies and NIH guidelines. The BALB/cj (male, 6~8 weeks old) mice used for in vivo NanoLuc assay in this study were purchased from The Jackson Laboratory (JAX). The C57BL/6 mice (female, 7 weeks old), used for hEPO assay in this study were purchased from The Jackson Laboratory (JAX).
mRNA diluted in 50 mM citrate buffer (pH 4) and lipid mix (37.5 mM in ethanol) containing 50 mol % SM-102, 10 mol % DSPC, 38.5 mol % Cholesterol, and 1.5 mol % DMG-PEG2000 were assembled into LNP using a NanoAssemblr Spark instrument [Precision Nanosystems]. Upon formulation, mRNA-LNPs were diluted in 12 mL 1×PBS solution and the buffer was exchanged by concentrating with a 30 kDa spin filter [MilliporeSigma, UFC901008] to remove residue ethanol. Concentrations and encapsulation efficiency of mRNA were determined using Quant-it RiboGreen RNA Assay Kit [ThermoFisher, R11490]. 1 μg NanoLuc or hEPO mRNA-LNP in a total volume of 100 μL was injected through retro orbital injection into each mouse. Four mice were used for each condition of each experiment (NanoLuc imaging, hEPO ELISA, and reticulocyte counting). For NanoLuc imaging, PBS injection was used as negative control. For hEPO/reticulocyte experiments, poly(C)-LNP complex was used as negative control.
In vivo activity of NanoLuc was measured using a Competent IVIS-Perkin Elmer IVIS Spectrum CT System [Perkin Elmer]. At each time point, mice were anesthetized with isoflurane. The fluorofurimazine substrate with poloxamer-407 [Promega, CS320501] was freshly reconstituted in PBS to a final concentration of ~5.1 mM and injected intraperitoneally (i.p.) into the mice at a dose of ~22 nmol per gram body weight. Mice were imaged 5 mins post injection using auto exposure settings. The luminescent activity was quantified using Aura 4.0 imaging software. The background was determined by including mice injected with poly C-LNP negative control and subtracted from each measurement.

[4] = system: HeLa cells; assay: Two-ORF FLuc/3xHiBiT reporter bioluminometry; type: cell-based; settings: 8 hrs post transfection
Procedure: as §1
Finally, Applicant evaluated if the branched cap on the QRNA has the ability to initiate translation of open reading frames (ORFs) upstream of it. […] FLuc and HiBiT bioluminometry were evaluated 8 hrs post transfection.
Lastly, to test whether the branched cap could drive the translation for upstream AUG via either proximity looping or bidirectional ribosome scanning to opt for upstream open reading frames (ORFs), Applicant generated a two-ORF reporter mRNA that contained a 5′ full-length FLuc ORF and a 3′ 3×HiBIT ORF with an out-of-frame start codon from the FLuc ORF (construct 62). […]

[5] = molecular target: eIF4E (UniProt P06730 P06730:1-217); assay: EMSA; 50 mM KCl, 10 mM Tris-HCl pH 7.6, 1 mM DTT, 4 C; settings: tags: His tag, Cayman Chemical 25150
Procedure: Capped oligonucleotides were labeled on the 3′ end using AF647 labeled cytidine-5′-phosphate-3′-(6-aminohexyl) phosphate [Jena Bioscience, NU-1706-AF647] and T4 RNA ligase ligated AF647-labeled cytidine onto the capped oligos using manufacturer's protocols. Oligos were then incubated in the binding buffer (1 mM DTT, 50 mM KCl, 10 mM Tris-HCl (pH 7.6), Novex Hi-Density TBE Sample Buffer [Invitrogen, LC6678]) with varying eIF4E-His [Cayman Chemical Inc, 25150] concentrations prepared by sequential dilutions from the stock solution. The oligos and […] were incubated at 4° C. for 30 mins and characterized by EMSA with Novex TBE Gels, 4-20% [Invitrogen, EC6225BOX] at 4° C. AF647 labeled oligos were imaged with BioRad ChemiDoc MP Imaging System [12003154] and band intensities were quantified using ImageJ. For Kd calculation, the proportions of bound were plotted against eIF4E concentration using GraphPad Prism (Specific binding with Hill slope).
To gain insights into the mechanism of how the topologically branched internal cap initiates mRNA translation, Applicant used fluorophore-labeled mono- or dual-capped oligonucleotides and measured their affinity to eIF4E through EMSA.

eIF4E, sequence (P06730 whole entry, one chain of several): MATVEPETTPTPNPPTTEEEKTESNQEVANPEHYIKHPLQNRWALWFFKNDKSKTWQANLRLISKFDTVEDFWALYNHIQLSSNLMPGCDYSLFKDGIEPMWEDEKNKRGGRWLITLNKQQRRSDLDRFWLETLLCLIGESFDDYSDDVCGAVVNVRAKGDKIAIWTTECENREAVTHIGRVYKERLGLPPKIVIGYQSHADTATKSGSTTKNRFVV

For `O=C(O)C(Cc1ccccc1[N+](=O)[O-])=NNc1nc(-c2ccc(Cl)c(Cl)c2)cs1` (mixture of isomers) [4EGI-1], the “Translation of mono- and dual-capped mRNA in RRL” value ([1]; 600 μM 4EGI-1 coupled with reduction of RRL % to 30%) was “almost completely halted translation” and the “Translation of mono- and dual-capped mRNA in RRL in presence of 4EGI-1” value ([1]; 4EGI-1 600 μM or DMSO) was “inhibited translation of dual-capped mRNA; also recorded: significantly reduced”.

For “construct 49: m1ψ NLuc QRNA with LNAm7G branched cap (SEQ ID NO: 115) ({P}-rArArArArArArAd[5OctU]rArArArArArA-{3P}; ligated into m1Ψ circRNA, LNA-m7G-capped LNA/2'-OMe branch oligo clicked at octadiynyl-dU)”, the “NLuc protein production increase of modified circRNA/QRNA” value ([2]; HeLa cells, 8 hrs post transfection, compared to circ-NLuc with only OU handle (construct 45)) was “up to 144 fold”, the “NLuc translation of QRNA relative to uncapped m1ψ-circRNA precursor (circRNA-OU)” value ([3]; 8 hrs) was 17 × and the “NLuc translation of QRNA relative to uncapped m1ψ-circRNA precursor (circRNA-OU)” value ([3]; 24 hrs) was 30 ×. For the same molecule, the “NLuc translation of QRNA relative to uncapped m1ψ-circRNA precursor (circRNA-OU)” value ([3]; 48 hrs) was 59 × and the “Time of peak NLuc bioluminescence / translation in vivo” value ([3]; LNP, retro-orbital injection) was 24 h.

In the case of “construct 64: two-ORF FLuc-3×HiBiT QRNA with LNAm7G branched cap (SEQ ID NO: 119) ({P}-rArArArArArArAd[5OctU]rArArArArArA-{3P}; ligated into circRNA, LNA-m7G-capped LNA/2'-OMe branch oligo clicked at octadiynyl-dU, further chemistry not fully specified)”, the “FLuc ORF expression, QRNA vs circRNA (uncapped control)” value [4] is reported as 166 fold, the “HiBiT ORF expression, QRNA vs circRNA (uncapped control)” value [4] is reported as 18.7 fold and the “Translation of upstream HiBiT and downstream FLuc ORFs, result in words” value [4] is reported as “both the HiBiT and FLuc ORFs were enhanced”.

B1: 2xLNAm7G dual-capped branched (42) (ssRNA)
RNA 1: AGAUAAAUAAAAAA
RNA 2: AGAGAUAA
modifications: LNA-m7G cap on both 5' ends; second strand 3'-azide clicked to 5-octadiynyl-dU at position 8 of first strand
Work on B1 yielded a Kd ([5]; label: AF647-cytidine, branched) of 1280 nM.

AGAUAAAUAAAAAA (ssRNA, 5' m7G cap; 5-octadiynyl-dU at position 8) [1xm7G-OU (28)] showed a Kd ([5]; label: 3' AF647-cytidine) of 2210 nM.

B2: construct S19: Bn7G-capped Nluc QRNA with globin UTRs, TGT/preQ1-azide labeled, uridine-containing (SEQ ID NO: 133) (nucleic acid)
chain: UAGUCUCGAGCUGGUACUGCAUGCACGCAAUGCUAGCUGCCCCUUUCCCGUCCUGGGUACCCCGAGUCUCCCCCGACCUCGGGUCCCAGGUAUGCUCCCACCUCCACCUGCCCCACUCACCACCUCUGCUAGUUCCAGACACCUCCCAAGCACGCAGCAAUGCAGCUCAAAACGCUUAGCCUAGCCACACCCCCACGGGAAACAGCAGUGAUUAACCUUUAGCAAUAAACGAAAGUUUAACUAAGCUAUACUAACCCCAGGGUUGGUCAAUUUCGUGCCAGCCACACCCUGGAGCUAGCAAAAAAAAAAAAAAAAAAAAAAAAAAAAAAAAAAAAAAACUCAGUAGAUGUUUUCUUGGGUUAAUUGAGGCCUGAGUAUAAGGUGACUUAUACUUGUAAUCUAUCUAAACGGGGAACCUCUCUAGUAGACAAUCCCGUGCUAAAUUGUAGGACUGCCCUUUAAUAAAUACUUCUAUAUUUAAAGAGGUAUUUAUGAAAAGCGGAAUUUAUCAGAUUAAAAAUACUUUCUCUAGAGUCGACCUGCAG
modifications: Bn7G cap; TGT/preQ1-azide label
For B2, the “Nluc translation of QRNA vs circRNA, result in words” value ([2]; circRNA with and without IRES, uridine-containing) was “translated much more efficiently than its circRNA counterpart”.
